In patent publication US11752111B2, “Use of cannabidivarin in the treatment of autism spectrum disorder, associated disorders and schizophrenia” (GW Research Limited, priority 2016, dated 2023):

Legend:
[1] = test system: VPA-exposed rats; assay: Locomotor activity and repetitive behaviours (self-grooming), prenatal VPA model; assay type: in vivo, rat; conditions: VPA offspring
Experimental: Pregnant Sprague-Dawley rats (Charles River, Calco, Italy), received a single intraperitoneal injection of 500 mg/kg sodium valproate on the 12.5 day after conception, and control females were injected with physiological saline at the same time. Sodium valproate (Sigma Aldrich, Milan, IT) was dissolved in saline at a concentration of 250 mg/ml.
CBDV was dissolved in ethanol, cremophor and saline (1:1:18). Symptomatic treatment with CBDV at doses of 0.2, 2, 20, and 100 mg/kg/day i.p. was performed starting from PND 34 (early adolescence) till 56 (early adulthood), both in male and female offspring of dams injected with VPA 500 mg/kg (or vehicle) on day 12.5 after conception. At PND 56, a series of behavioural tests was performed in order to assess the effect of chronic CBDV on sociability, social novelty, short-term memory, locomotion and stereotyped/repetitive behaviours.
Locomotor activity and repetitive behaviours: Locomotor activity was recorded in an activity cage for 20 minutes with the aid of Anymaze program (Ugo Basile, Italy). In this period, repetitive behaviours (self-grooming and digging) were measured by an observer blind to the treatment group.

[2] = test system: MeCP2 KO mice; assay: Body weight gain in Rett syndrome model; assay type: in vivo, mouse
Experimental: CBDV was administered daily at the dose of 2, 20 and 200 mg/kg i.p. starting from PND 28 and the following signs were scored every other day: hindlimb clasping (indication of motor imbalance), tremor, gait (measure of coordination), breathing, mobility and general condition.
The CBDV was dissolved in ethanol, cremophor and saline (1:1:18).
Starting from PND 28, mice received a daily intraperitoneal injection of CBDV (or vehicle) at the dose of 2, 20 and 200 mg/kg. Animals were then scored every other day to evaluate the effect of CBDV treatment on motor symptoms (hindlimb clasping, gait, mobility) as well as neurological signs and general conditions (breathing abnormalities, tremors and general condition) present in MeCP2 knockout (KO) mice.

[3] = test system: Ube3am-/p+ (AS) mice; assay: Clasping test in Angelman syndrome model; assay type: in vivo, mouse; conditions: CBDV 20 mg/kg i.p. chronic treatment (30 days); AS mice at 10 weeks of age vs AS vehicle
Experimental: (§1) Heterozygous mice with maternal deficiency of Ube3A (Ube3am−/p+) and wild type (Ube3am+/p+) were purchased from The Jackson Laboratory (Jackson code: B6.129S7-Ube3a tm1Alb/J) and maintained in a C57BL/6 background.
Drugs were dissolved in 1:1:18 ethanol:cremophor:0.9% saline, for intraperitoneal (i.p.) administration. […] CBDV was administered at 20 mg/kg.
Clasping: The clasping test assesses ataxia in mice. Mice were suspended by the base of the tail and their behaviours were recorded for 30 seconds. The time for which the mice clasped their hind limbs was recorded. The time was then scored as follows: 4, 15-30 s, 3, 10-15 s, 2, 5-10 s, 1, 0-5 s and 0,0 s

[4] = test system: MeCP2 KO mice; assay: Novel Object Recognition test, short- and long-term memory, Rett syndrome model; assay type: in vivo, mouse
Experimental: Furthermore, the efficacy of CBDV in reverting/attenuating the short- and long-term memory deficits present in these mice was evaluated. The Novel Object Recognition (NOR) test was performed before the starting of the treatment Post Natal Day 28 (PND 28), at PND 41 when the first motor symptoms appear and at PND 56 and 66 when the disease is fully manifested.
At PND 28, 41, 56 and 66 the effect of CBDV on short- and long-term memory deficits was investigated through the Novel Object Recognition (NOR) test.
The experimental apparatus used for the Novel Object Recognition test was an open-field box (43×43×32 cm) made of Plexiglas, placed in a dimly illuminated room. Animals performed each test individually.
Briefly, each animal was placed in the arena and allowed to explore two identical previously unseen objects for 10 minutes (familiarization phase). After an inter-trial interval of 30 minutes and 24 hours one of the two familiar objects was replaced by a novel, previously unseen object and mice were returned to the arena for the 10-minute test phase.
During the test phase the time spent exploring the familiar object (Ef) and the new object (En) was recorded separately by two observers blind to the groups and the discrimination index was calculated as follows: [(En−Ef)/(En+Ef)]×100.

[5] = test system: Ube3am-/p+ (AS) mice; assay: Novel object recognition in Angelman syndrome model; assay type: in vivo, mouse; conditions: CBDV 20 mg/kg i.p.; AS mice at 7-8 weeks vs AS vehicle
Experimental: as §1
Drugs were dissolved in 1:1:18 ethanol:cremophor:0.9% saline, for intraperitoneal (i.p.) administration. Drug treatment was performed daily for 35 days. CBDV was administered at 20 mg/kg.
Novel Object Recognition: The novel object recognition assesses recognition memory in mice. The experiment started with the habituation period, during which mice were allowed to freely explore for 1 hour the apparatus which consists of a rectangular open box (40×30×30 cm width×length×height) made of grey polyvinyl chloride (PVC) illuminated by a dim light. The day after each mouse was allowed to explore two identical objects positioned in the back left and right corners for 5 min (acquisition). A video camera recorded the time spent on exploration of each object. […] The behaviour of mice was analyzed by an observer blind to the treatment. Data are expressed as percentage of recognition index (RI %), which was calculated as the percentage of the time spent exploring the novel object/time spent exploring the novel object+time spent exploring the familiar object×100.

[6] = test system: Ube3am-/p+ (AS) mice; assay: Audiogenic seizure susceptibility in Angelman syndrome model; assay type: in vivo, mouse
Experimental: as §1
For the audiogenic seizure tests CBDV was administered at 20, 200 and 400 mg/kg.
Seizure susceptibility: Audiogenic seizures were induced by vigorously scraping scissors across the metal grating of the cage lid which produces a 100 DB high frequency loud noise. This was done for 20 seconds. This test consists of 3 phases. In phase 1 all mice were tested for epilepsy. In phase 2 all mice were injected daily with either vehicle or a drug for 7 or 10 days. In phase 3 mice were tested for epilepsy (one hour after last injection).

SMILES: C=C(C)[C@@H]1CCC(C)=C[C@H]1c1c(O)cc(CCC)cc1O [CBDV, Cannabidivarin]
- repetitive behaviours (compulsive self-grooming) (FIG. 2A) ([1]; 20 mg/kg in males): significantly normalize
- locomotor activity (FIG. 2B) ([1]; 2, 20 and 100 mg/kg in males): normalize
- repetitive behaviours (compulsive self-grooming) (FIG. 2A) ([1]; 2 and 100 mg/kg in females): significantly normalize
- body weight gain (FIG. 4A) ([2]; 2, 20 and 200 mg/kg i.p. daily PND 28-66, MeCP2 KO mice): partially prevent the reduction in body weight
- body weight, area under the curve (FIG. 4B) ([2]; KO mice): significantly rescued body weight
- body weight, area under the curve (FIG. 4B) ([2]; WT controls): without affecting body weight
- clasping duration (FIG. 11) [3]: significantly reduced clasping duration
- long-term memory in the NOR test (FIG. 10) ([4]; 2, 20 and 200 mg/kg, 24 hours inter-trial interval, KO mice): significantly counteract the cognitive impairment
- short-term memory in the NOR test (FIG. 9) ([4]; 2, 20 and 200 mg/kg, each time point (PND 41, 56, 66), 30 min inter-trial interval, KO mice): significantly reverted the cognitive impairment
- long-term recognition memory in the NOR test (FIG. 10) ([4]; WT littermates): without affecting recognition memory
- short-term recognition memory in the NOR test (FIG. 9) ([4]; WT littermates): without affecting recognition memory
- discrimination index, novel object recognition (FIG. 13) [5]: significantly increased the discrimination index
- seizure susceptibility, number of mice with seizures vs baseline (FIG. 15) ([6]; 20 mg/kg or 200 mg/kg, 7 or 10 days treatment): no effect
- number of mice with seizures (FIG. 15) ([6]; 400 mg/kg): statistically significant decrease
